logP | Compound
3 | CCOc1ccccc1C(=O)N(C(C)C)C(C)C
3.1 | CC(C)N(C(=O)Cc1ccccc1)C(C)C
3 | CC(C)N(C(=O)c1ccccc1Cl)C(C)C
2.6 | CCOc1ccccc1C(=O)N1CCCCC1
2.5 | CCOc1ccccc1C(=O)N(CC)CC
1.54 | CN(C)C(=O)c1ccccc1Cl
3 | Cc1cccc(C(=O)N(C(C)C)C(C)C)c1
2.5 | CC(C)N(C(=O)c1ccccc1)C(C)C
2.1 | CCN(CC)C(=O)c1ccccc1Cl
2.5 | Cc1ccc(C(=O)N(C(C)C)C(C)C)cc1
2.4 | CCNC(=O)c1ccccc1OCC
2.8 | COc1ccc(C(=O)N(C(C)C)C(C)C)cc1

The remaining lines, values behind:

Compound | logP
Cc1cccc(C(=O)N2CCCCC2)c1 | 2.6
CCNC(=O)c1cccc(C)c1 | 1.32
Cc1ccc(C(=O)N2CCCCC2)cc1 | 2.8
O=C(c1ccccc1Cl)N1CCCCC1 | 2.8
CCNC(=O)Cc1ccccc1 | 1
CCN(CC)C(=O)Cc1ccccc1 | 2.4
CN(C)C(=O)CC1CCCCC1 | 2.19
CN(C)C(=O)Cc1ccccc1 | 1.48
CCNC(=O)c1ccc(C)cc1 | 1.38
CCN(CC)C(=O)CC1CCCCC1 | 3.12
Cc1ccc(C(=O)N(C)C)cc1 | 1.72
O=C(c1ccccc1)N1CCCCC1 | 2.2
Cc1cccc(C(=O)N(C)C)c1 | 1.6
COc1ccc(C(=O)N2CCCCC2)cc1 | 2.4
CCNC(=O)c1ccc(OC)cc1 | 1.14
O=C(Cc1ccccc1)N1CCCCC1 | 2.44
O=C(CC1CCCCC1)N1CCCCC1 | 3.2
CCNC(=O)CC1CCCCC1 | 2.28
CCN(CC)C(=O)c1ccc(C)cc1 | 2.38
